# Legend:
# [1] = Pharmacokinetic study in plasma of chickens (LC-MS); assay type: in vivo
# Description: Details of the methods are included in the supplemental material. page 3: previously(3). […] The mixtures were then incubated at […] for 30 min and proteins were removed by ultracentrifugation at 13,000xg for 25 min at 2 °C.
# APEC O78 [2] = experiment: Gene expression analysis by RT-qPCR in GI-7-treated APEC; assay type: cell-based, Escherichia coli; details: 4 h treatment, vs untreated APEC
# Description: We also quantitated the expression of other genes essential for maintaining OM integrity (bamA, mlaA, lolB, and pbgA) ([21]). […] An APEC O78 culture treated with 1% DMSO was used as a control. Total RNA was extracted using the RNeasy minikit (Qiagen), and 5 μg of purified RNA was used to synthesize cDNA using the RT^2 first strand kit (Qiagen). The RT-qPCR was performed using Maxima SYBR green/ROX qPCR master mix (Thermo Fisher) in a RealPlex^2 Mastercycler (Eppendorf) with a 55°C annealing temperature. The primers (Table S3) were designed using the PrimerQuest tool and obtained from Integrated DNA Technologies (IDT). The data were normalized to the housekeeping gene encoding glyceraldehyde-3-phosphate dehydrogenase (GAPDH), and relative fold changes were calculated using the cycle threshold (ΔΔCT) method ([79]). Two independent experiments were conducted.
# LptE = experiment: Membrane protein SDS-PAGE and LC-MS/MS (emPAI of LptE); assay type: cell-based, Escherichia coli; details: GI-7-treated APEC; untreated APEC 13.84
# Description: A GI-7-treated culture of APEC O78 was prepared as described above, and the fractions of cytoplasmic and total membrane proteins were prepared using ultracentrifugation as described previously ([80]). […] The gel was stained with Coomassie blue R-250, the bands of ∼21.4 kDa (expected size of LptE) were excised from both untreated and GI-7-treated lanes of the gel, and in-gel digestion was performed as previously described ([81]). LC-MS/MS of the digested samples was performed on the Thermo Scientific Orbitrap Fusion MS instrument equipped with an EASY-Spray source operated in positive ion mode (CCIC, MS&P Facility, OSU). The Thermo Scientific UltiMate 3000 RSLCnano system containing an Acclaim PepMap 100 (75 μm by 2 cm) trap column and Easy-Spray nano separation column (PepMap RSLC C18, […], 100 Å, 75 μm by 150 mm; Thermo Scientific) was used for injection and elution of samples. For the proteomics database search, the E. coli Uniprot protein database with trypsin/P (selected as the enzyme) was used with the fragment mass tolerance set to 0.5 Da. Mascot Daemon (Matrix Science version 2.6.0) and Scaffold Proteome software were used for the MS/MS data analysis. […] The exponentially modified protein abundance index (emPAI) ([82]) was also calculated to compare the LptE levels between untreated and GI-7-treated gel fragments.
# APEC O78 [3] = experiment: Comparative efficacy of GI-7 and sulfadimethoxine, floor trial; assay type: in vivo, commercial broiler chickens; design: Cumulative lesion score / Mean lesion score in Liver / Mean lesion score in Heart / Mean lesion score in Lung / Mean lesion score in Air sacs: scale not given here
# Description: At day 13 (7 dpi), half of the chickens from each group, and at day 42 (slaughter age), 10 chickens from each group were necropsied and lesions and APEC loads were assessed as described above.
# APEC = experiment: microbe, parasite or virus in culture; assay type: cell-based, Escherichia coli
# [4] = test system: eukaryotic cells and wax moth larva; design: method as in PMID 30333507; details: cited from earlier work
# [5] = Quantification of residue in chicken tissues (LC-MS); assay type: in vivo, chickens
# Source text: Chickens (n = 5/time point) from an experimental set-up as described above for the floor trial were sacrificed at 2 days (day 13; 2 DPLT), 5 days (day 16; 5 DPLT), and 31 days (day 42; 31 DPLT) post-last treatment. […] Tissue samples from chickens treated with SDM were used for comparison. […] Details of the methods are included in the supplemental material.
# APEC O78 [6] = test system: APEC O78; design: method as in PMID 30333507; details: cited from earlier work
# [7] = comparative efficacy trial, vs PC
# [8] = comparative efficacy, GI-7 60 mg/liter, SDM 495.3 mg/liter, 7 dpi
smiles,measurement,setting,value
COc1ccc(CNCc2cccc(C(F)(F)F)c2)cc1OCC(O)CN1CCCC1 (centres unmarked) [GI-7],Cmax,"[1]; commercial broiler, plasma, po, mean ± standard deviation, read-out: Peak plasma concentration (Cmax)",434 ± 388 ng/mL
same,Tmax,"[1]; commercial broiler, plasma, po, postadministration, read-out: Time to maximum concentration (Tmax)",8 h
same,Half-life,[1]; comparison in words,shorter half-life than SDM
same,Cumulative accumulation in plasma after repeated administration,[1]; data not shown,no cumulative accumulation
same,Excretion,[1]; plasma,≤ 24 h
same,Absorption (time at which absorbed),"[1]; plasma, drinking water delivery",0.5 h
same,Downregulation of lptD gene expression,APEC O78 [2]; ~50% growth inhibition,12.90 fold
same,Downregulation of bamA gene expression,APEC O78 [2],7.72 fold
same,Downregulation of lolB gene expression,APEC O78 [2],1.92 fold
same,Downregulation of lptA gene expression,APEC O78 [2],5.13 fold
same,Downregulation of lptC gene expression,APEC O78 [2],4.99 fold
same,Downregulation of lptE gene expression,APEC O78 [2],5.39 fold
same,Downregulation of mlaA gene expression,APEC O78 [2],9.94 fold
same,Downregulation of pbgA gene expression,APEC O78 [2],5.75 fold
same,emPAI of LptE,LptE,8.46
same,Reduction of severity of lesions,"APEC O78 [3]; 60 mg/liter in drinking water, as given in the abstract",29.5%
same,Mortality reduction compared to PC group,"APEC O78 [3]; GI-7 60 mg/liter, SDM 495.3 mg/liter in drinking water, PC mortality 41.2%",14.7%
same,"Mean APEC load, Heart",APEC O78 [3]; comparative efficacy trial,6.1 Log CFU/g tissues
same,"Mean APEC load, Kidney",APEC O78 [3]; comparative efficacy trial,6.1 Log CFU/g tissues
same,"Mean APEC load, Liver",APEC O78 [3]; comparative efficacy trial,5.7 Log CFU/g tissues
same,"Mean APEC load, Lung",APEC O78 [3]; comparative efficacy trial,6.1 Log CFU/g tissues
same,"log reduction in APEC load, Heart",APEC O78 [3]; [7],1.8 Log CFU/g tissues
same,"log reduction in APEC load, Kidney",APEC O78 [3]; [7],1.6 Log CFU/g tissues
same,"log reduction in APEC load, Liver",APEC O78 [3]; [7],1.8 Log CFU/g tissues
same,"log reduction in APEC load, Lung",APEC O78 [3]; [7],2.0 Log CFU/g tissues
same,Cumulative lesion score,"APEC O78 [3]; comparative efficacy, 7 dpi",9.8
same,Mean lesion score in Air sacs,APEC O78 [3]; [8],3.0
same,Mean lesion score in Heart,APEC O78 [3]; [8],3.2
same,Mean lesion score in Liver,APEC O78 [3]; [8],2.3
same,Mean lesion score in Lung,APEC O78 [3]; [8],1.3
same,"% reduction in severity, Air sacs lesions","APEC O78 [3]; comparative efficacy, vs PC",9.9%
same,"% reduction in severity, Heart lesions","APEC O78 [3]; comparative efficacy, vs PC",10.2%
same,"% reduction in severity, Liver lesions","APEC O78 [3]; comparative efficacy, vs PC",7.2%
same,"% reduction in severity, Lung lesions","APEC O78 [3]; comparative efficacy, vs PC",29.5%
same,Effect on body weight gain (BWG) and feed conversion ratio (FCR),APEC O78 [3]; floor trial,No significant effect
same,Overall BWG,"APEC O78 [3]; floor trial, day 42 minus day 1, NC 2,501.2","2,432.4 g"
same,Overall FCR,"APEC O78 [3]; floor trial, NC 1.45",1.45
same,Survival of chickens,"APEC O78 [3]; floor trial, P < 0.1",increased the survival
same,Resistance in vivo,APEC; APEC isolated from chickens treated with GI-7,no in vivo resistance
same,MBC,APEC; Escherichia coli,50 µM
same,MIC,APEC; Escherichia coli,25 µM
same,Toxicity to eukaryotic cells and wax moth larva,[4],minimally toxic
same,Residue concentration in muscle,[5]; 2 DPLT,0.04 ± 0.03 ppm/g tissue
same,Residue level in kidney,[5]; 2 DPLT,0.7 ± 0.6 ppm/g tissue
same,Residue level in liver,[5]; 2 DPLT,0.5 ± 0.4 ppm/g tissue
same,Residue concentration in muscle,[5]; 5 DPLT,0.01 ± 0.01 ppm/g tissue
same,Residue level in kidney,[5]; 5 DPLT,0.3 ± 0.3 ppm/g tissue
same,Residue level in liver,[5]; 5 DPLT,0.2 ± 0.2 ppm/g tissue
same,Residue concentration in muscle,[5]; 31 DPLT,0.0 ± 0.0 ppm/g tissue
same,Residue level in kidney,[5]; 31 DPLT,0.0 ± 0.0 ppm/g tissue
same,Residue level in liver,[5]; 31 DPLT,0.0 ± 0.0 ppm/g tissue
same,Residues in tissues relative to FDA limits for antibiotics,[5]; in vivo,below the limits permitted by the Food and Drug Administration
same,MIC,APEC O78 [6],25 µM

# Source: PMC8557866, “Novel Small Molecule Growth Inhibitor Affecting Bacterial Outer Membrane Reduces Extraintestinal Pathogenic Escherichia coli (ExPEC) Infection in Avian Model” (Microbiology Spectrum, 2021)
